# Assay results as given in patent US7473790B2 (Pfizer Inc., priority 2003, dated 2009).
# Molecular target: T1, HCV polymerase (Hepatitis C virus genotype 1b, UniProt P26663)
# T1 construct: 2.5 pmoles (0.15 μg) HCV polymerase protein in a final volume of 75 μL
# Assay: HCV polymerase primer/template-directed transcription assay (32P-GTP incorporation, filter binding)
# Type: biochemical
# Details: @ 50 uM compound; given where IC50 was impractical to calculate; read-out: percent inhibition
# Outline: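 Recombinant genotype 1b polymerase (30 nM) extended biotin-dG12 primer on poly(rC)300 template with 1 μM GTP plus α-32P-GTP, pH 7.2, 10 mM MgCl2, 30 min at 30° C, 1% DMSO final. Products captured on DE filters and counted. IC50 fitted from triplicate cpm, with a tight-binding correction applied below 200 nM.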
# T1 sequence (P26663 2420-3010): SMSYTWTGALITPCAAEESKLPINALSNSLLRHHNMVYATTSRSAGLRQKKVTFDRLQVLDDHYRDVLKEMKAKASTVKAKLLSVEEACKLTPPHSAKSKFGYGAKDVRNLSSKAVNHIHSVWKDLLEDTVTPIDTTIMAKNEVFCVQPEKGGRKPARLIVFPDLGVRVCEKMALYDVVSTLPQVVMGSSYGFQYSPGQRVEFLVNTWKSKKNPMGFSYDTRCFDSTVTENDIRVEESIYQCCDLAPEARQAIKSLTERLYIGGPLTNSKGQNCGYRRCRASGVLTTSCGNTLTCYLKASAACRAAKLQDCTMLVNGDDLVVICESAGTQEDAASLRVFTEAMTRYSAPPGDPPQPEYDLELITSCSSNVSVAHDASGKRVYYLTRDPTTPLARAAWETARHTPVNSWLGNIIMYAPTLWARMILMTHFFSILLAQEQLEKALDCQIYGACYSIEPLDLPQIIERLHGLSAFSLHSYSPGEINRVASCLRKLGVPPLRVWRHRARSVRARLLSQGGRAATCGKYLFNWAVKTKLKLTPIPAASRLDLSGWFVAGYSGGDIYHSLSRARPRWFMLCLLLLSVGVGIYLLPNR
row,Compound,inhibition at 50 µM [%]
1,"Cc1cc(C)n2nc(CC3=C(O)CC(CCC(=O)NC4CCN(C(=O)OC(C)(C)C)CC4)(C4CCCC4)OC3=O)nc2n1 (stereo not drawn) [B(109), 4-{3-[2-Cyclopentyl-5-(5,7-dimethyl-[1,2,4]triazolo[1,5-a]pyrimidin-2-ylmethyl)-4-hydroxy-6-oxo-3,6-dihydro-2H-pyran-2-yl]-propionylamino}-piperidine-1-carboxylic acid tert-butyl ester]",23

# Same assay, conditions: compound concentration not given
row,Compound,percent inhibition [%]
1,"Cc1cc(C)n2nc(CC3=C(O)CC(CCc4ccc(O)c(C(C)C)c4)(C4CCCC4)OC3=O)nc2n1 (stereo not drawn) [B(94), 6-Cyclopentyl-3-(5,7-dimethyl-[1,2,4]triazolo[1,5-a]pyrimidin-2-ylmethyl)-4-hydroxy-6-[2-(4-hydroxy-3-isopropyl-phenyl)-ethyl]-5,6-dihydro-pyran-2-one]",1

# Same assay, conditions: recombinant HCV polymerase; 30 minutes at 30° C.; concentration giving 50% inhibition of polymerase-directed transcription; read-out: IC50
row,Compound,IC50 [nM]
1,"Cn1ccc2cc(CC3=C(O)CC(CCc4ccc(C(C)(C)C#N)c(F)c4)(C4CCCC4)OC3=O)ccc21 (stereo not drawn) [B(92), 2-[4-(2-{2-cyclopentyl-4-hydroxy-5-[(1-methyl-1H-indol-5-yl)methyl]-6-oxo-3,6-dihydro-2H-pyran-2-yl}ethyl)-2-fluorophenyl]-2-methylpropanenitrile]",8
2,"CC(C)(C#N)c1ccc(CCC2(C3CCCC3)CC(O)=C(Cc3cn[nH]c3)C(=O)O2)cc1F (stereo not drawn) [B(93), 2-(4-{2-[2-cyclopentyl-4-hydroxy-6-oxo-5-(1H-pyrazol-4-ylmethyl)-3,6-dihydro-2H-pyran-2-yl]ethyl}-2-fluorophenyl)-2-methylpropanenitrile]",90
3,"Cc1cc(C)n2nc(CC3=C(O)CC(CCc4ccc(O)c(Cl)c4)(C4CCCC4)OC3=O)nc2n1 (stereo not drawn) [B(95), 6-[2-(3-Chloro-4-hydroxy-phenyl)-ethyl]-6-cyclopentyl-3-(5,7-dimethyl-[1,2,4]triazolo[1,5-a]pyrimidin-2-ylmethyl)-4-hydroxy-5,6-dihydro-pyran-2-one]",13
4,"CCc1cc(CCC2(C3CCCC3)CC(O)=C(Cc3nc4nc(C)cc(C)n4n3)C(=O)O2)ccc1OC (stereo not drawn) [B(96), 6-Cyclopentyl-3-(5,7-dimethyl-[1,2,4]triazolo[1,5-a]pyrimidin-2-ylmethyl)-6-[2-(3-ethyl-4-methoxy-phenyl)-ethyl]-4-hydroxy-5,6-dihydro-pyran-2-one]",5
5,"CCc1cc(CCC2(C3CCCC3)CC(O)=C(Cc3nc4nc(C)cc(C)n4n3)C(=O)O2)cc(Cl)c1OC (stereo not drawn) [B(97), 6-[2-(3-Chloro-5-ethyl-4-methoxy-phenyl)-ethyl]-6-cyclopentyl-3-(5,7-dimethyl-[1,2,4]triazolo[1,5-a]pyrimidin-2-ylmethyl)-4-hydroxy-5,6-dihydro-pyran-2-one]",9
6,"CCc1ccc(OC)c(CCC2(C3CCCC3)CC(O)=C(Cc3nc4nc(C)cc(C)n4n3)C(=O)O2)c1 (stereo not drawn) [B(98), 6-Cyclopentyl-3-(5,7-dimethyl-[1,2,4]triazolo[1,5-a]pyrimidin-2-ylmethyl)-6-[2-(5-ethyl-2-methoxy-phenyl)-ethyl]-4-hydroxy-5,6-dihydro-pyran-2-one]",6
7,"CCOc1ccc(CCC2(C3CCCC3)CC(O)=C(Cc3nc4nc(C)cc(C)n4n3)C(=O)O2)cc1CC (stereo not drawn) [B(99), 6-Cyclopentyl-3-(5,7-dimethyl-[1,2,4]triazolo[1,5-a]pyrimidin-2-ylmethyl)-6-[2-(4-ethoxy-3-ethyl-phenyl)-ethyl]-4-hydroxy-5,6-dihydro-pyran-2-one]",350
8,"CCc1cc(CCC2(C3CCCC3)CC(O)=C(Cc3nc4nc(C)cc(C)n4n3)C(=O)O2)cc(Cl)c1O (stereo not drawn) [B(100), 6-[2-(3-Chloro-5-ethyl-4-hydroxy-phenyl)-ethyl]-6-cyclopentyl-3-(5,7-dimethyl-[1,2,4]triazolo[1,5-a]pyrimidin-2-ylmethyl)-4-hydroxy-5,6-dihydro-pyran-2-one]",3
9,"CCc1cc(CCC2(C3CCCC3)CC(=O)CC(=O)O2)cc(Cl)c1O (stereo not drawn) [B(101), 6-[2-(3-Chloro-5-ethyl-4-hydroxy-phenyl)-ethyl]-6-cyclopentyl-dihydro-pyran-2,4-dione]",610
10,"CCc1cc(CCC2(C3CCCC3)CC(O)=C(Cc3nc4nc(C)cc(C)n4n3)C(=O)O2)ccc1OC(C)C (stereo not drawn) [B(102), 6-Cyclopentyl-3-(5,7-dimethyl-[1,2,4]triazolo[1,5-a]pyrimidin-2-ylmethyl)-6-[2-(3-ethyl-4-isopropoxy-phenyl)-ethyl]-4-hydroxy-5,6-dihydro-pyran-2-one]",500
11,"COc1ccc(CCC2(C3CCCC3)CC(O)=C(Cc3nc4nc(C)cc(C)n4n3)C(=O)O2)c(F)c1 (stereo not drawn) [B(103), 6-Cyclopentyl-3-(5,7-dimethyl-[1,2,4]triazolo[1,5-a]pyrimidin-2-ylmethyl)-6-[2-(2-fluoro-4-methoxy-phenyl)-ethyl]-4-hydroxy-5,6-dihydro-pyran-2-one]",107
12,"CCc1cc(CCC2(C3CCCC3)CC(O)=C(Cc3nc4nc(C)cc(C)n4n3)C(=O)O2)ccc1OCCO (stereo not drawn) [B(104), 6-Cyclopentyl-3-(5,7-dimethyl-[1,2,4]triazolo[1,5-a]pyrimidin-2-ylmethyl)-6-{2-[3-ethyl-4-(2-hydroxy-ethoxy)-phenyl]-ethyl}-4-hydroxy-5,6-dihydro-pyran-2-one]",3
13,"Cc1cc(C)n2nc(CC3=C(O)CC(CCc4ccc(O)c(F)c4)(C4CCCC4)OC3=O)nc2n1 (stereo not drawn) [B(105), 6-Cyclopentyl-3-(5,7-dimethyl-[1,2,4]triazolo[1,5-a]pyrimidin-2-ylmethyl)-6-[2-(3-fluoro-4-hydroxy-phenyl)-ethyl]-4-hydroxy-5,6-dihydro-pyran-2-one]",46
14,"COc1ccc(CCC2(C3CCCC3)CC(O)=C(Cc3nc4nc(C)cc(C)n4n3)C(=O)O2)cc1C1CC1 (stereo not drawn) [B(107), 6-Cyclopentyl-6-[2-(3-cyclopropyl-4-methoxy-phenyl)-ethyl]-3-(5,7-dimethyl-[1,2,4]triazolo[1,5-a]pyrimidin-2-ylmethyl)-4-hydroxy-5,6-dihydro-pyran-2-one]",6
15,"CCc1cc(CCC2(C3CCCC3)CC(O)=C(Cc3nc[nH]c3C)C(=O)O2)ccc1O (stereo not drawn) [B(110), 6-Cyclopentyl-6-[2-(3-ethyl-4-hydroxy-phenyl)-ethyl]-4-hydroxy-3-(5-methyl-1H-imidazol-4-ylmethyl)-5,6-dihydro-pyran-2-one]",107
16,"CCc1nc(CC2=C(O)CC(CCc3ccc(O)c(CC)c3)(C3CCCC3)OC2=O)c(C)[nH]1 (stereo not drawn) [B(111), 6-Cyclopentyl-6-[2-(3-ethyl-4-hydroxy-phenyl)-ethyl]-3-(2-ethyl-5-methyl-1H-imidazol-4-ylmethyl)-4-hydroxy-5,6-dihydro-pyran-2-one]",321
17,"Cc1cc(C)n2nc(CC3=C(O)CC(CCc4ccc([C@@H](C)O)cc4)(C4CCCC4)OC3=O)nc2n1 (stereo partly drawn) [B(112), 6-Cyclopentyl-3-(5,7-dimethyl-[1,2,4]triazolo[1,5-a]pyrimidin-2-ylmethyl)-4-hydroxy-6-{2-[4-(1-hydroxy-ethyl)-phenyl]-ethyl}-5,6-dihydro-pyran-2-one]",97
18,"CCc1cc(CCC2(C3CCCC3)CC(O)=C(Cc3nc4nc(C)cc(C)n4n3)C(=O)O2)ccc1Cl (stereo not drawn) [B(113), 6-[2-(4-Chloro-3-ethyl-phenyl)-ethyl]-6-cyclopentyl-3-(5,7-dimethyl-[1,2,4]triazolo[1,5-a]pyrimidin-2-ylmethyl)-4-hydroxy-5,6-dihydro-pyran-2-one]",19
19,"C[C@@H](O)c1ccc(CCC2(C3CCCC3)CC(=O)CC(=O)O2)cc1F (stereo partly drawn) [B(115), 6-Cyclopentyl-6-{2-[3-fluoro-4-(1-hydroxy-ethyl)-phenyl]-ethyl}-dihydro-pyran-2,4-dione]",3300
